Assay [1] concerns the target T1, Lysosomal acid glucosylceramidase (Mus musculus, UniProt P17439).
T1 sequence (P17439 whole entry): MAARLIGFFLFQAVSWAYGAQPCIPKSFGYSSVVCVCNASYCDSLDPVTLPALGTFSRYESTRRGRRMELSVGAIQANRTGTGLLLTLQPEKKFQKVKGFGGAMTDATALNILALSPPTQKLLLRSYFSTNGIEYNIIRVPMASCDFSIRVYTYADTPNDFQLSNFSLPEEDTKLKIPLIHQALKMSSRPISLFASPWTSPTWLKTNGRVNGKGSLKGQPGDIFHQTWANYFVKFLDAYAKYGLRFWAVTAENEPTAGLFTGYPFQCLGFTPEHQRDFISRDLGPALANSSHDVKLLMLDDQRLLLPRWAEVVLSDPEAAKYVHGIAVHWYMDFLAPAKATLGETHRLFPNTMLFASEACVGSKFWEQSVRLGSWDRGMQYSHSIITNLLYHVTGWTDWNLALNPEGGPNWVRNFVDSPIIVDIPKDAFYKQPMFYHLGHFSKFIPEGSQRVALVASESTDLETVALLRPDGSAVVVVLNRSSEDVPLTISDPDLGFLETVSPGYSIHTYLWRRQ
The assay can be described thus: Inhibitory activity against Glucosylceramidase in mouse liver. The format is tissue-based.

For assay [2], the target named is T1, Lysosomal acid glucosylceramidase. The assay can be described thus: Inhibitory activity against Glucosylceramidase in mouse liver at a concentration of 10e-4 M; NA is inactive. The format is tissue-based.
Assay [3] has the same target. Kind of assay: Inhibitory activity against Glucosylceramidase in mouse liver; Significant activity.
The next assay addresses T2, Galactocerebrosidase (Mus musculus, UniProt P54818).
T2 sequence (P54818 whole entry): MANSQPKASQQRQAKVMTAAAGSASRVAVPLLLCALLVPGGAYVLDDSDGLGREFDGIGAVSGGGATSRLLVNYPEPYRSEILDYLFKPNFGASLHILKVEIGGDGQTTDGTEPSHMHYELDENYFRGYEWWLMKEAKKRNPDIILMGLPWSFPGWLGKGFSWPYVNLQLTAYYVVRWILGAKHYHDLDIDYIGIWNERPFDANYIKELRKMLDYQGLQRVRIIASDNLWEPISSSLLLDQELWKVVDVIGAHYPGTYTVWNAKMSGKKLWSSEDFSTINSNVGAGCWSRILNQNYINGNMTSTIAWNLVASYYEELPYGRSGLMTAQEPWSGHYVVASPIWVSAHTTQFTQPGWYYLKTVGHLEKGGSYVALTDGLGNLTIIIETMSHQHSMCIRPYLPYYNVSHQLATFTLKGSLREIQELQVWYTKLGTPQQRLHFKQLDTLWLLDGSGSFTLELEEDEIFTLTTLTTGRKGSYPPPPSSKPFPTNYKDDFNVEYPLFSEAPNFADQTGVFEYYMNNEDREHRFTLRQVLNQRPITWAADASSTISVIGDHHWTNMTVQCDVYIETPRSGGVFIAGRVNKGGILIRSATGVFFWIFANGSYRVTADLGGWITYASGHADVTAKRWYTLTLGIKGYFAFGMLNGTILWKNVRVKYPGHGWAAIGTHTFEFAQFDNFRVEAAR
The assay can be described thus: Inhibitory activity against Galactocerebrosidase; NA is not active.

Assay [4] has as its target T1, Lysosomal acid glucosylceramidase. The assay can be described thus: Inhibitory activity against Glucosylceramidase in mouse liver relative to compound 5; Active. The format is tissue-based.
Assay [5] shares this target. The assay can be described thus: Specific inhibitory activity against Glucosylceramidase in mouse liver. It counts as tissue-based.
For assay [6] the target is unchanged. The assay can be described thus: Specific inhibitory activity against Glucosylceramidase in mouse liver; Significant activity.

pIC50: −log10 of the molar value.

As for `O[C@@H]1[C@H]2O[C@H]2[C@H](O)C[C@H]1O`, in assay [1], the pIC50 was 4.01. Consider `O[C@H]1[C@H](O)[C@H](O)C[C@@H]2O[C@H]12`, for which the IC50 entry in assay [2] is on record as “Not Active”. As to `O[C@@H]1[C@H](O)[C@H](O)C[C@H]2O[C@@H]12`, in assay [2], the IC50 result is “Not Active”.

In the case of `O[C@@H]1[C@H](O)[C@H]2O[C@H]2C[C@@H]1O`, in assay [2], the IC50 entry is on record as “Not Active”. In the case of `O[C@H]1[C@@H]2O[C@@H]2[C@@H](O)C[C@H]1O`, in assay [2], the IC50 result was “Not Active”. `O[C@@H]1[C@@H](O)[C@H](O)C[C@H](O)[C@@H]1O`: in assay [3], the IC50 entry is recorded as “Significant activity”.

In the case of `O[C@@H]1[C@@H](O)[C@H](O)C[C@H]2O[C@@H]12`, the pIC50 in assay [1] is 6.02. Further, on Galactocerebrosidase, the IC50 entry is on record as “Not Active”. Take `O[C@@H]1[C@H]2O[C@H]2[C@H](O)C[C@@H]1O`: the IC50 result in assay [2] is reported as “Not Active”. Still for that read-out and setting: the value for `O[C@@H]1[C@H](O)[C@H]2O[C@H]2C[C@H]1O` was “Not Active”; that for `O[C@@H]1[C@H]2O[C@H]2[C@@H](O)C[C@H]1O` was “Not Active”. In the case of `O[C@@H]1[C@@H](O)[C@H](O)C[C@@H]2O[C@H]12`, in assay [4], the IC50 result is recorded as “Active”.

On to `O[C@@H]1[C@@H](O)[C@H](O)C[C@@H](O)[C@H]1O`, for which the IC50 result in assay [3] is “Significant activity”. Take `O[C@H]1[C@H]2O[C@H]2[C@H](O)C[C@H]1O`: the IC50 entry in assay [2] is “Not Active”. Turning to `O[C@H]1[C@@H]2O[C@@H]2[C@H](O)C[C@@H]1O`, the IC50 entry in assay [4] was “Active”. Consider `O[C@H]1[C@H](O)[C@@H](O)[C@@H]2O[C@@H]2[C@@H]1O` [CONDURITOL B EPOXIDE], for which the negative-log IC50 (pIC50) in assay [5] was 5.05. With `OC[C@@H]1[C@@H](O)[C@H](O)[C@@H](O)[C@@H]2O[C@H]12` [CYCLOPHELLITOL], the IC50 entry in assay [6] is “Significant activity”.

As a reminder, the pIC50 is the IC50 on a negative log10 scale, so that one unit is a factor of ten. Read a low pIC50 as a high IC50.

These data come from ChEMBL document CHEMBL1132265, “Synthesis and evaluation of glucocerebrosidase inhibitory activity of anhydro deoxyinositols from (+)-epi- and (-)-vibo-quercitols” (Bioorg Med Chem Lett, 1999).
